Results as given in patent US10898548B2, “Modulators of protein tyrosine phosphatase and uses thereof” (LEUVAS THERAPEUTICS, priority 2015, dated 2021).
“Also recorded” adds a separate entry of the source. Marks after values point to notes of the source that are not given here.

Columns and labels:
PTPRG = experiment: in vitro phosphatase activity (pNPP) on membranes from human primary monocytes; type: biochemical; details: monocyte membranes, DMSO 7.25
Protocol: We first tested the biochemical activity of the fusion peptide by performing in vitro assays of phosphatase activity on purified membranes isolated from human primary monocytes compared to membranes isolated from human primary polymorphonuclear cells (PMNs). Human primary monocytes and polymorphonuclear (PMNs) cells were isolated from whole blood of healthy donors. Purity of monocyte preparation was evaluated by flow cytometry after staining with fluorescein isothiocyanate (FITC)-conjugated anti-CD14 antibody and was more than 95%. Isolated cells were kept at 37° C. in standard adhesion buffer (PBS, 1 mM CaCl2, 1 mM MgCl2, 10% FBS, pH 7.2) and used within 1 h.
The phosphatase activity in membrane fractions isolated from human monocytes and PMNs was assessed. […] Cells were then sonicated twice (6 sec, 15% W) and centrifuged at 2000 rpm for 10 minutes. The supernatants were collected and centrifuged at 28000 rpm for 60 minutes. After centrifugation, the supernatants were discarded, and the membrane pellets were dissolved in 20 mM tris pH 7.4. Equal amount of membrane fractions were added to pNPP buffer containing 20 mM tris, 10 mM DTT and 2 mM pNPP. Following, DMSO and peptides were added. After 30 minutes of incubation, levels of de-phosphorylation, in presence or absence of orthovanadate, were measured at 405 nm by a plate reader. Values are absorbance at 405 nn shown as percent fold increase over the blank; mean values of three experiments are shown. *p<0.001 vs vehicle (DMSO).

human neutrophils = experiment: fMLP-triggered adhesion of neutrophils (PMNs) to ICAM-1; type: cell-based; details: human PMNs
Protocol: We investigated the functional effect of PTPRG activation on integrin activation and mediated adhesion by chemoattractants in human primary monocytes and PMNs in a static and flow adhesion assays. Briefly, human primary monocytes or polymorphonuclear cells were suspended at 5×10^6/ml in standard adhesion buffer. Adhesion assays were performed on 18-well glass slides coated with 1 mg/ml human fibrinogen or with 1 μg/ml human ICAM-1 in PBS; 20 μl of cell suspension were added to the coated wells and stimulated for 1 min at 37° C. with 5 μl of fMLP, 0.05 μM final concentration. After rapid washing, adherent cells were fixed in ice-cold 1.5% glutaraldehyde in PBS, and still images of adherent cells in 0.2 mm^2 fields were acquired al 20× phase contrast magnification, NA 0.40, with a charge-coupled device camera (ICD-42B; Ikegami) connected to an inverted microscope (IX50; Olympus). Image acquisition and computer-assisted enumeration of adherent cells were performed with ImageJ (National Institute of Health).
Chemokine-triggered adhesion of human neutrophils was measured similarly. Freshly isolated, non-activated human neutrophils incubated with buffer or increasing concentrations of TAT-ICD and then spotted onto ICAM-1-coated slides. Integrin-mediated adhesion was triggered using 50 nM fMLP and the adherent cells were fixed and enumerated as described for the lymphocytes above.

P1-WD: fusion Trojan peptide SEQ ID 3: Penetratin, glycine, PTPRG wedge domain aa 831-856; RQIKIWFQNRRMKWKKGKQFVKHIGELYSNNQHGFSEDFEEVQ (listed as Homo sapiens)
phosphatase activity, absorbance at 405 nm as percent fold increase over the blank (PTPRG; P1-WD 50 micromolar): 34.62* %
phosphatase activity, absorbance at 405 nm as percent fold increase over the blank (PTPRG; P1-WD 100 micromolar): 86.70* %
phosphatase activity, absorbance at 405 nm as percent fold increase over the blank (PTPRG; P1-WD 200 micromolar): 109.00* %
chemoattractant-induced adhesion / integrin activation of PMNs (human neutrophils): completely unaffected; also recorded: not able to block

P1: Penetratin delivery peptide, 16 aa RQIKIWFQNRRMKWKK (SEQ ID 4), control [reference compound]
phosphatase activity, absorbance at 405 nm as percent fold increase over the blank (PTPRG; control peptide, concentration not given): 16.00%
